# Measurements: PubChem BioAssay AID1259408 (Genetic Toxicology Data Bank (GENE-TOX), 2018)
# The source made the active and inactive calls. How the calls were made is not given here.
# System: GENE-TOX genotoxicity assays, various organisms and cells
# Experiment: GENE-TOX mutagenicity studies
# Details: for call: Assay Type: In vivo carcinogenicity studies, Assay Code: CCGT
# [1] = Species/Cell Type: Nonhuman, Evaluation Type: Evaluation A (Pre-1980)
# [2] = Species/Cell Type: Syrian hamster embryo (SA7/SHE) cells, Assay Type: Cell transformation, viral enhanced, Assay Code: CT7+, Evaluation Type: Evaluation A (Pre-1980)
# [3] = Species/Cell Type: Human lymphocytes, Assay Type: Sister-chromatid exchange (SCE) in vitro, Assay Code: SCLT, Evaluation Type: Evaluation B (Post-1980)
# [4] = Species/Cell Type: Human, Assay Type: Sister-chromatid exchange (SCE) in vitro, Assay Code: SC1T, Evaluation Type: Evaluation B (Post-1980)
# [5] = Species/Cell Type: Nonhuman, Assay Type: Sister-chromatid exchange (SCE) in vitro, Assay Code: SC2+D, Dose Response: With dose response, Evaluation Type: Evaluation B (Post-1980)
# [6] = Species/Cell Type: Escherichia coli polA (W3119 vs P3478), Assay Type: Rec-assay, DNA effects (bacterial DNA repair), Assay Code: RE1T, Evaluation Type: Evaluation A (Pre-1980)
# [7] = Species/Cell Type: Salmonella typhimurium (one or more of the five standard strains: TA98, TA100, TA1535, TA1537, and TA1538), Assay Type: Histidine reverse gene mutation, Ames assay, Assay Code: SAL+*, Activation: With metabolic activation, Evaluation Type: Evaluation A (Pre-1980)
structure (smiles),measurement,setting,value
Nc1ncc2[nH]cnc2n1,mutagenic call,"Species/Cell Type: Drosophila melanogaster, Assay Type: Sex-linked recessive lethal gene mutation, Assay Code: SRLT, Evaluation Type: Evaluation A (Pre-1980)",no conclusion
same,mutagenic call,"Species/Cell Type: Escherichia coli WP2 UVRA, Assay Type: Tryptophan reverse gene mutation, Assay Code: WPU+, Evaluation Type: Evaluation A (Pre-1980)",active; positive
same,mutagenic call,"Species/Cell Type: Mouse lymphoma (L5178Y) cells, Assay Type: Forward gene mutation at the thymidine kinase (TK) locus, chromosome aberrations, Assay Code: L51+, Evaluation Type: Evaluation A (Pre-1980)",active; positive
same,mutagenic call,"Species/Cell Type: Mouse, Sex: Female, Assay Type: Spot test, gene mutation, Assay Code: MST+, Evaluation Type: Evaluation A (Pre-1980)",active; positive
same,mutagenic call,"Species/Cell Type: Neurospora crassa, Assay Type: Forward gene mutation, Assay Code: NEF+, Evaluation Type: Evaluation A (Pre-1980)",active; positive
same,call,[1],no conclusion
same,mutagenic call,"Species/Cell Type: Saccharomyces cerevisiae, Assay Type: Forward gene mutation, Assay Code: YEF+, Evaluation Type: Evaluation A (Pre-1980)",active; positive
O=C1C=C(N2CC2)C(=O)C=C1N1CC1,mutagenic call,"Species/Cell Type: Drosophila melanogaster, Assay Type: Sex-linked recessive lethal gene mutation, Assay Code: SRL+, Evaluation Type: Evaluation A (Pre-1980)",active; positive
N#CO,mutagenic call,"Species/Cell Type: Arabidopsis species, Assay Type: Gene mutation, Assay Code: ARM+, Evaluation Type: Evaluation A (Pre-1980)",active; positive
C=CC1C(C)OC(=O)C1C(C)=O (stereo unspecified),mutagenic call,"Species/Cell Type: Allium cepa, Assay Type: Chromosome aberrations, Assay Code: ALC+, Evaluation Type: Evaluation A (Pre-1980)",active; positive
Oc1cc(O)cc(O)c1,mutagenic call,"Species/Cell Type: Allium cepa, Assay Type: Chromosome aberrations, Assay Code: ALC+D, Dose Response: With dose response, Evaluation Type: Evaluation A (Pre-1980)",active; positive
NC(=O)CCl,mutagenic call,[2],active; positive
CN(C)C(=O)Nc1ccc(Oc2ccc(Cl)cc2)cc1,mutagenic call,"Species/Cell Type: Saccharomyces cerevisiae, Assay Type: Mitotic recombination or gene conversion, Assay Code: YEC-, Evaluation Type: Evaluation A (Pre-1980)",inactive; negative
CCNC1(c2ccccc2)CCCCC1,mutagenic call,[2],active; positive
OCc1c2ccccc2c(CO)c2c1ccc1ccccc12,mutagenic call,"Species/Cell Type: Chinese hamster lung (V79) cells, Assay Type: Forward gene mutation at the HPRT or ouabain locus, Assay Code: V79-*, Activation: With metabolic activation, Evaluation Type: Evaluation A (Pre-1980)",inactive; negative
same,call,[1],no conclusion
Cc1cn([C@H]2C[C@H](O)[C@@H](CO)O2)c(=O)[nH]c1=O,mutagenic call,"Species/Cell Type: Chinese hamster lung (V79) cells, Assay Type: Forward gene mutation at the HPRT or ouabain locus, Assay Code: V79+, Evaluation Type: Evaluation A (Pre-1980)",active; positive
same,mutagenic call,"Species/Cell Type: Glycine max (soybean), Assay Type: Gene mutation, Assay Code: GLM-, Evaluation Type: Evaluation A (Pre-1980)",inactive; negative
same,mutagenic call,[3],no conclusion
same,mutagenic call,[4],no conclusion
same,mutagenic call,"Species/Cell Type: Mouse (C3H/10T1/2) cells, Assay Type: Cell transformation, Assay Code: CTH-, Evaluation Type: Evaluation A (Pre-1980)",inactive; negative
same,call,[1],no conclusion
same,mutagenic call,[5],active; positive
CCN(CC)CCn1c2ccc(C)c3c2c([n+]1[O-])-c1ccc(Cl)cc1S3,mutagenic call,"Species/Cell Type: Salmonella typhimurium (one or more of the five standard strains: TA98, TA100, TA1535, TA1537, and TA1538), Assay Type: Histidine reverse gene mutation, Ames assay, Assay Code: SALT, Evaluation Type: Evaluation A (Pre-1980)",no conclusion
O=[N+]([O-])c1cnc(CO)n1CCO,mutagenic call,[3],no conclusion
same,mutagenic call,[4],no conclusion
CS(C)=O,mutagenic call,"Species/Cell Type: Aspergillus nidulans, Assay Type: Aneuploidy, chromosome aberrations, Assay Code: ASN+, Evaluation Type: Evaluation A (Pre-1980)",active; positive
same,mutagenic call,"Species/Cell Type: Aspergillus nidulans, Assay Type: Mitotic recombination, Assay Code: ASGT, Evaluation Type: Evaluation A (Pre-1980)",no conclusion
same,mutagenic call,"Species/Cell Type: Bacillus subtilis (H17 vs M45), Assay Type: Rec-assay, spot test, DNA effects (bacterial DNA repair), Assay Code: REWT, Evaluation Type: Evaluation A (Pre-1980)",no conclusion
same,mutagenic call,"Species/Cell Type: Drosophila melanogaster, Assay Type: Aneuploidy, whole sex chromosome loss, chromosome aberrations, Assay Code: DAC-M, Evaluation Type: Evaluation A (Pre-1980)",inactive; negative
same,mutagenic call,"Species/Cell Type: Drosophila melanogaster, Assay Type: Sex-linked recessive lethal gene mutation, Assay Code: SRL-, Evaluation Type: Evaluation A (Pre-1980)",inactive; negative
same,mutagenic call,"Species/Cell Type: Drosophila melanogaster, Sex: Male, Assay Type: Heritable translocation test, chromosome aberrations, Assay Code: DHTT, Evaluation Type: Evaluation A (Pre-1980)",no conclusion
same,mutagenic call,"Species/Cell Type: Escherichia coli polA (W3110 vs P3478), Assay Type: Rec-assay, DNA effects (bacterial DNA repair), Assay Code: RE2-, Evaluation Type: Evaluation A (Pre-1980)",inactive; negative
same,mutagenic call,[6],no conclusion
same,mutagenic call,"Species/Cell Type: Fischer rat embryo (RLV/1706) cells, Assay Type: Cell transformation, viral enhanced, Assay Code: CTR-, Evaluation Type: Evaluation A (Pre-1980)",inactive; negative
same,mutagenic call,[3],no conclusion
same,mutagenic call,[4],no conclusion
same,mutagenic call,"Species/Cell Type: Mouse embryo (AKR/ME) cells, Assay Type: Cell transformation, Assay Code: CTK-, Evaluation Type: Evaluation A (Pre-1980)",inactive; negative
same,mutagenic call,"Species/Cell Type: Neurospora crassa, Assay Type: Aneuploidy, chromosome aberrations, Assay Code: NEN-, Evaluation Type: Evaluation A (Pre-1980)",inactive; negative
same,call,[1],no conclusion
same,mutagenic call,"Species/Cell Type: Nonhuman, Assay Type: Sister-chromatid exchange (SCE) in vitro, Assay Code: SC2-, Evaluation Type: Evaluation A (Pre-1980)",inactive; negative
same,mutagenic call,"Species/Cell Type: Nonhuman, Assay Type: Sister-chromatid exchange (SCE) in vivo, Assay Code: SC3+, Evaluation Type: Evaluation B (Post-1980)",active; positive
same,mutagenic call,"Species/Cell Type: Rodents, Sex: Male, Assay Type: Dominant lethal test, Assay Code: DLTT, Evaluation Type: Evaluation A (Pre-1980)",no conclusion
same,mutagenic call,"Species/Cell Type: Saccharomyces cerevisiae, Assay Type: Mitotic recombination or gene conversion, Assay Code: YEC+, Evaluation Type: Evaluation A (Pre-1980)",active; positive
same,mutagenic call,"Species/Cell Type: Salmonella typhimurium (one or more of the five standard strains: TA98, TA100, TA1535, TA1537, and TA1538), Assay Type: Histidine reverse gene mutation, Ames assay, Assay Code: SAL-, Evaluation Type: Evaluation A (Pre-1980)",inactive; negative
same,mutagenic call,"Species/Cell Type: Salmonella typhimurium, Assay Type: Forward and reverse gene mutation, host-mediated assay, Assay Code: HMA-, Evaluation Type: Evaluation A (Pre-1980)",inactive; negative
same,mutagenic call,"Species/Cell Type: Syrian hamster embryo (SHE) cells, Assay Type: Cell transformation, clonal assay, Assay Code: CTC-, Evaluation Type: Evaluation A (Pre-1980)",inactive; negative
O=S(O)OS(=O)O,mutagenic call,"Species/Cell Type: Escherichia coli WP2 UVRA, Assay Type: Tryptophan reverse gene mutation, Assay Code: WPU-*, Activation: With metabolic activation, Evaluation Type: Evaluation A (Pre-1980)",inactive; negative
Cc1cc(-c2ccccc2C)ccc1N,mutagenic call,"Species/Cell Type: Escherichia coli polA (W3110 vs P3478), Assay Type: Rec-assay, DNA effects (bacterial DNA repair), Assay Code: RE2+, Evaluation Type: Evaluation A (Pre-1980)",active; positive
same,mutagenic call,[6],no conclusion
same,mutagenic call,"Species/Cell Type: Rat primary hepatocytes, Assay Type: Unscheduled DNA synthesis (UDS) in vitro, DNA effects, Assay Code: UDP+, Evaluation Type: Evaluation A (Pre-1980)",active; positive
same,mutagenic call,"Species/Cell Type: Saccharomyces cerevisiae, Assay Type: Mitotic recombination or gene conversion, Assay Code: YEH-, Evaluation Type: Evaluation A (Pre-1980)",inactive; negative
same,mutagenic call,[7],active; positive
same,mutagenic call,"Species/Cell Type: Salmonella typhimurium, Assay Type: Forward and reverse gene mutation, body fluid assay, Assay Code: BFU+, Evaluation Type: Evaluation A (Pre-1980)",active; positive
same,mutagenic call,"Species/Cell Type: Salmonella typhimurium, Assay Type: Forward and reverse gene mutation, host-mediated assay, Assay Code: HMA+, Evaluation Type: Evaluation A (Pre-1980)",active; positive
same,mutagenic call,"Species/Cell Type: Syrian hamster embryo (SHE) cells, Assay Type: Cell transformation, clonal assay, Assay Code: CTC+D, Dose Response: With dose response, Evaluation Type: Evaluation A (Pre-1980)",active; positive
O=C(NOS(=O)(=O)O)c1ccc2ccccc2c1,mutagenic call,[5],active; positive
c1ccc2c(c1)ccc1cc3ccc4ccccc4c3cc12,mutagenic call,[7],active; positive
Nc1ccc2c(c1)Cc1cc(N)ccc1-2,mutagenic call,"Species/Cell Type: Salmonella typhimurium (one or more of the five standard strains: TA98, TA100, TA1535, TA1537, and TA1538), Assay Type: Histidine reverse gene mutation, Ames assay, Assay Code: SAL+, Evaluation Type: Evaluation A (Pre-1980)",active; positive
CC(=O)OC/C=C(C)/C=C/C=C(C)/C=C/C1=C(C)CCCC1(C)C,mutagenic call,"Species/Cell Type: Human, Assay Type: Sister-chromatid exchange (SCE) in vitro, Assay Code: SC1+, Evaluation Type: Evaluation B (Post-1980)",active; positive
same,mutagenic call,"Species/Cell Type: Nonhuman, Assay Type: Sister-chromatid exchange (SCE) in vitro, Assay Code: SC2T, Evaluation Type: Evaluation B (Post-1980)",no conclusion
